Assay results from a melting point compilation (Tetko et al.; mined from patent text by program, amines drawn as free bases though some values may be those of a salt).

Point of comparison: `CCn1cc(N(C)S(=O)(=O)c2cccs2)c2[nH]c(C3=NCCS3)cc21`, melting point 163 °C. Against it:
- CC(C)(C)NC(=O)NC(Cc1ccccc1)C(=O)Nc1c(F)cc(F)cc1F (centres undefined) — higher, 205 to 206 °C
- CC(C)(C)c1cc(C(c2ccc([N+](=O)[O-])cc2)N2CCCCC2)cc(C(C)(C)C)c1O (centres undefined) — lower, 147 to 148 °C
- CCOC1(OCC)CCC2(CC1)c1cc(O)c(O)cc1CC(C(=O)O)N2C(=O)OCc1ccccc1 (centres undefined) — lower, 132 to 133 °C
- COc1ccc(C=CC(=O)NNC(=O)CCc2cc(C(C)(C)C)c(O)c(C(C)(C)C)c2)cc1 — higher, 252 to 254 °C
- CCOC(=O)Cc1c(C(=O)OCC)cnc2c(NC(=O)c3c(Cl)cccc3Cl)cccc12 — lower, 159 °C
- CCOC(=O)C(=O)Nc1nc(CN2CCN(C(c3ccccc3)c3ccccc3)CC2)cs1 — lower, 125 to 128 °C
- COCCOc1cc2ncc(C#N)c(Nc3cc(OC)c(Cl)cc3Cl)c2cc1OCCN1CCOCC1 — lower, 158 to 159 °C
- N#Cc1cccc(-c2ccc(=O)n(Cc3cccc(-c4ncc(Br)cn4)c3)n2)c1 — higher, 178 to 179 °C
- COC(=O)C(CC(C)C)NCC(=O)Nc1cccc2c1C(=O)c1c(NC(=O)CNC(CC(C)C)C(=O)OC)cccc1C2=O (centres undefined) — higher, 238 to 239 °C
- CCCCCCCCCCCCCCCCCCSc1ccc(C)cc1 — lower, 54 to 55 °C
- Cc1nn(-c2cnccn2)c(-c2ccccc2)c1CC(=O)O — lower, 125 °C
- CC(=O)OC1OCC[C@@H]1NC(=O)[C@@H](N)CC(C)C (some centres undefined) — lower, 75 to 80 °C
- CCCCCC1=CCC(c2cc(F)c(C(=O)O)c(F)c2)C=C1 (centres undefined) — lower, 65 °C
- O=C(NCC1CC1)c1cc2nccnc2c(Cl)c1NC(=O)c1cc(C(F)(F)F)nn1-c1ncccc1Cl — higher, 180 to 183 °C
- C=CCc1c(OC)cc(C(=O)O)cc1OC — lower, 56 to 57 °C
- COc1ccc2cc(CN3CCC(NC(=O)NC(=O)c4ccccc4)CC3)ccc2c1 — higher, 243 to 244 °C
- CN1CC(c2cccc(Cl)c2)C(=O)C(c2cccc(Cl)c2)C1 (centres undefined) — lower, 140 °C
- O=c1oc2ccccc2c(O)c1[N+](=O)[O-] — higher, 174 °C
- C[C@H](NP(=O)(Cc1ccccc1)Cc1ccccc1)C(=O)N1CCC[C@H]1C(=O)N1CCC[C@H]1C(N)=O — lower, 89 °C
- Clc1nc(Cl)nc(C2CC2)n1 — lower, 106 to 107 °C
- NC(=O)C(Sc1ccccc1)c1cccc(C(=O)c2ccc(Cl)cc2)c1N (centres undefined) — higher, 189 to 191 °C
- COC(=O)c1ccc(Cc2c[nH]c3ccc([N+](=O)[O-])cc23)c(OC)c1 — lower, 153 to 155 °C
- O=S(CC1CO1)c1ncc(Cl)cn1 (centres undefined) — lower, 92 °C
- CC1(C)OC(=O)Nc2ccc(-c3cccc(C(=O)c4ccccc4)c3)cc21 — lower, 156 to 157 °C
- Cn1c(=O)c2cc([N+](=O)[O-])cnc2n(C)c1=O — higher, 203 to 205 °C
- O=C(O)CN1C(=O)CN(Cc2ccccc2)C1=O — lower, 125 to 127 °C
- CC(C)(CC(=O)O)CC(=O)N[C@H](Cc1ccc(-c2ccccc2)cc1)C(=O)NCCCCNc1ncccn1 — lower, 77 to 95 °C
- COc1[nH]c(C)c(SC(F)(Cl)Cl)c1C#N — higher, 175 °C
- CCCCC(Cc1cccnc1)(C(=O)O)S(=O)(=O)c1ccc(OC)cc1 (centres undefined) — lower, 65 °C
- COc1c(C)c(C)c(OC)c(C(O)(c2ccccn2)C(C)C)c1C (centres undefined) — lower, 99 to 100 °C
- O=C(Nc1ccc2[nH]c(=O)[nH]c2c1)C(=O)N1CCC(Cc2ccc(F)cc2)CC1 — higher, > 260 °C
- Cc1ccc(C(=O)Nc2cccc(C(F)(F)F)c2)cc1-c1ccc2ncsc2c1 — lower, 102 to 104 °C
- Nc1ccc(NC(=O)C(=O)N2CCC(Cc3ccc(F)cc3)CC2)cc1 — lower, 141 to 143 °C
- O=C(O)Cc1ccc(N2CC3=C(CCCC3)C2=O)cc1 — higher, 189 to 191 °C
- O=C1Nc2ccc(Cl)cc2C(c2ccccc2)=N[C@@H]1Cc1ccccc1 — lower, 154 to 157 °C
- O=C1CCCc2nc3ccccc3c(NCc3ccccc3)c21 — not separable, 162 to 163 °C
- COCc1oc(C)cc(=O)c1OCc1ccccc1 — lower, 30 to 32 °C
- O=C(O)C1=Cc2cc(Br)cc(Br)c2OC1C(F)(F)F (centres undefined) — higher, 225 to 226 °C
- Nc1nc(N)c2ncn(CCC(CO)CO)c2n1 — higher, 187 to 190 °C
- O=C(Nc1ccccc1O)c1ccc(CSc2ccc(O)cc2)cc1 — lower, 152 to 156 °C
- CCOC(=O)c1cn(CC)c2cc(-c3ccno3)ccc2c1=O — higher, 243 to 245 °C
- CCc1cc(OC)cc2nc(-c3ccc(OC)cc3)oc12 — lower, 85 °C
- COC(=O)c1ncn2c1CN=C(c1ccccc1Cl)c1cc(Cl)ccc1-2 — higher, 206 to 208 °C
- Cc1ccc(S(=O)(=O)OCC2Cc3cccc(-c4cc(Cl)cc(Cl)c4)c3O2)cc1 (centres undefined) — lower, 113 to 115 °C
- Cc1cc(F)cc2c1CC/C2=C\C(=O)O — higher, 243 to 246 °C
- CC(=O)Nc1nc2c(s1)-c1c(cnn1C(N)=O)CC2 — higher, 265 to 270 °C
- O=C(CC=C(Cl)C1(Cl)OC1=O)c1ccccc1 (centres undefined) — lower, 121 to 122 °C
- CCOc1nn(Cc2cccc(OCc3nc(-c4ccccc4)oc3C)n2)cc1CCC(=O)O — lower, 144 to 145 °C
- CCCCc1nc(SC)c(C(=O)OCC)n1Cc1ccccc1-c1ccccc1S(=O)(=O)NC#N — lower, 105 °C
- COc1ccc(OCc2ccccc2)c2[nH]c(C)c(C)c12 — lower, 76 °C
- CN1CCCCCC1=NC(=O)Nc1cccc(Cl)c1 — lower, 115 to 118 °C
- CCCCCc1ccc(-c2ccc(C(C)=O)cc2)cc1 — lower, 81 to 82 °C
- CCOCCc1nc(NS(=O)(=O)c2cccc(Cl)c2C)sc1CN(C)C — lower, 152 to 153 °C
- Cc1ccc(N2CN(Cc3ccccc3)C3=NN=CC3=C2N)cc1 — higher, 195 to 196 °C
- COc1ncccc1-c1cc(F)c(F)c(OC2SCC(O)C(O)C2O)c1 (centres undefined) — lower, 127 °C
- O=C(O)c1ccc(NC(=O)c2ccc3c(c2)OCCO3)cc1 — higher, 278 to 280 °C
- N#Cc1ccc2nc(C(F)(F)F)[nH]c2c1 — higher, 194 to 196 °C
- CC1(CN)CN(c2cc3c(cc2F)c(=O)c(C(=O)O)cn3C2CC2)C1 — higher, 274 to 279 °C
- Cc1cc2c(cc1C)C(=O)C(C#N)C2=O — higher, 209 to 210 °C
- Cc1c(C(=O)CBr)ccn1S(=O)(=O)c1ccccc1 — lower, 108 to 110 °C
- CS(=O)c1ccc(C(=O)O)cc1[N+](=O)[O-] (centres undefined) — higher, 238 to 239 °C
- O=C(CCC(=O)c1cccs1)Nc1cccc2cc(-c3nccs3)[nH]c12 — lower, 140 to 141 °C
- CCOC(=O)c1ccc(N)c(I)c1 — lower, 71 to 74 °C
- CCOc1ccccc1C1=NC(=O)C2=NC=NC2=N1 — higher, 276 to 277 °C
- COC(=O)CSC1NC(=O)c2sccc2-n2cccc21 (centres undefined) — lower, 158 °C
- CC(NC(=O)c1c(F)cccc1F)C(F)(F)F (centres undefined) — higher, 167 to 168 °C
- C#CCn1nnnc1SC(c1ccccc1)c1ccccc1 — lower, 92 °C
- COC(=O)c1cc(-c2ccc(C)cc2)n(Cc2ccc(Cl)cc2Cl)n1 — lower, 105 °C
- CN(N)C(=S)Nc1ccc(C#N)cc1 — higher, 178 to 179 °C
- CCC(C(=O)O)c1ccc(N[C@@H](CCC(N)=O)C(=O)O)cc1 (some centres undefined) — higher, 166 to 167 °C
- N#Cc1cn(Cc2c(F)cccc2F)nn1 — lower, 116 °C
- Oc1nc(O)c2occc2n1 — higher, 233 °C
- COc1ccc(-c2cnc(N)c(Sc3cc(C(F)(F)F)cc(C(F)(F)F)c3)n2)cc1 — lower, 136 to 138 °C
